Laboratory results as given in PubChem BioAssay AID256 (DTP/NCI, 2004).
Several values for one entry are separate records, joined by “and”; a condition that tells them apart may be missing. Equal entries are not always repeated. Inconclusive results and toxic doses are left out.

Test system: CD2F1 mice, L1210 leukemia ip, survival T/C
Test: NCI In Vivo Anticancer Drug Screen. Data for tumor model L1210 Leukemia (intraperitoneal) in CD2F1 (CDF1) mice
Conditions: higher = longer survival
Method in brief: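 Vehicle-treated tumor-bearing mice served as controls (C) for compound-treated mice (T). Reported figure is T divided by C.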

[1] = endpoint: mean survival time, dose: 100.0 mg/kg/injection, schedule: Q04DX002 (ip), vehicle: saline with Tween-80
[2] = endpoint: mean survival time, dose: 200.0 mg/kg/injection, schedule: Q04DX002 (ip), vehicle: saline with Tween-80
[3] = endpoint: mean survival time, dose: 100.0 mg/kg/injection, schedule: Q04DX003 (ip), vehicle: saline with Tween-80
[4] = endpoint: mean survival time, dose: 200.0 mg/kg/injection, schedule: Q04DX003 (ip), vehicle: saline with Tween-80
[5] = endpoint: mean survival time, dose: 400.0 mg/kg/injection, schedule: Q04DX003 (ip), vehicle: saline with Tween-80
[6] = endpoint: mean survival time, dose: 100.0 mg/kg/injection, schedule: Q01DX009 (ip), vehicle: saline with Tween-80
[7] = endpoint: mean survival time, dose: 200.0 mg/kg/injection, schedule: Q01DX009 (ip), vehicle: saline with Tween-80
[8] = endpoint: mean survival time, dose: 400.0 mg/kg/injection, schedule: Q01DX009 (ip), vehicle: saline with Tween-80
[9] = endpoint: mean survival time, dose: 100.0 mg/kg/injection, schedule: Q01DX001 (ip), vehicle: saline
[10] = endpoint: mean survival time, dose: 200.0 mg/kg/injection, schedule: Q01DX001 (ip), vehicle: saline
[11] = endpoint: mean survival time, dose: 400.0 mg/kg/injection, schedule: Q01DX001 (ip), vehicle: saline

With Cc1cc(N(CCOS(C)(=O)=O)CCOS(C)(=O)=O)ccc1C=Nc1ccc(-c2nc(Cc3ccccc3)sc2C)cc1 the T/C (endpoint: mean survival time, dose: 12.5 mg/kg/injection, schedule: Q01DX009 (ip), vehicle: Klucel (hydroxypropylcellulose) (HPC)) was 103 % of control and 106 % of control, the T/C (endpoint: mean survival time, dose: 25.0 mg/kg/injection, schedule: Q01DX009 (ip), vehicle: Klucel (hydroxypropylcellulose) (HPC)) was 117 % of control and 124 % of control and the T/C (endpoint: mean survival time, dose: 50.0 mg/kg/injection, schedule: Q01DX009 (ip), vehicle: Klucel (hydroxypropylcellulose) (HPC)) was 117 % of control and 111 % of control. For the same compound, the T/C (endpoint: mean survival time, dose: 100.0 mg/kg/injection, schedule: Q01DX009 (ip), vehicle: Klucel (hydroxypropylcellulose) (HPC)) was 118 % of control and 120 % of control, the T/C (endpoint: mean survival time, dose: 200.0 mg/kg/injection, schedule: Q01DX009 (ip), vehicle: Klucel (hydroxypropylcellulose) (HPC)) was 110 % of control and the T/C (endpoint: mean survival time, dose: 400.0 mg/kg/injection, schedule: Q01DX009 (ip), vehicle: Klucel (hydroxypropylcellulose) (HPC)) was 103 % of control.

With NC(CSC(c1ccccc1)(c1ccccc1)c1ccccc1)C(=O)O (configuration not stated) (tested in a mixture with another compound) the T/C (endpoint: mean survival time, dose: 5.5 mg/kg/injection, schedule: Q04DX003 (ip), vehicle: water) was 105 % of control, the T/C (endpoint: mean survival time, dose: 8.3 mg/kg/injection, schedule: Q04DX003 (ip), vehicle: water) was 102 % of control and the T/C (endpoint: mean survival time, dose: 12.4 mg/kg/injection, schedule: Q04DX003 (ip), vehicle: water) was 102 % of control. For the same compound, the T/C (endpoint: mean survival time, dose: 18.6 mg/kg/injection, schedule: Q04DX003 (ip), vehicle: water) was 108 % of control, the T/C (endpoint: mean survival time, dose: 28.0 mg/kg/injection, schedule: Q04DX003 (ip), vehicle: water) was 103 % of control and the T/C (endpoint: mean survival time, dose: 42.0 mg/kg/injection, schedule: Q04DX003 (ip), vehicle: water) was 103 % of control. The T/C (endpoint: mean survival time, dose: 63.0 mg/kg/injection, schedule: Q04DX003 (ip), vehicle: water) was 90 % of control.

With CCOC(=O)NP(=O)(N1CC1(C)C)N1CC1(C)C (configuration not stated) the T/C (endpoint: mean survival time, dose: 45.0 mg/kg/injection, schedule: Q01DX009 (ip), vehicle: saline) was 170 % of control, the T/C (endpoint: mean survival time, dose: 90.0 mg/kg/injection, schedule: Q01DX009 (ip), vehicle: saline) was 232 % of control and the T/C (endpoint: mean survival time, dose: 180.0 mg/kg/injection, schedule: Q01DX009 (ip), vehicle: saline) was 261 % of control.

Cc1c2cnccc2c(C)c2c1c1ccccc1n2CCNCCO was tested, and the T/C (endpoint: mean survival time, dose: 50.0 mg/kg/injection, schedule: Q01DX009 (ip), vehicle: saline sonified) was 113 % of control and the T/C (endpoint: mean survival time, dose: 100.0 mg/kg/injection, schedule: Q01DX009 (ip), vehicle: saline sonified) was 87 % of control.

For CN(C)C(=S)Oc1ccc2ccc3ccccc3c2c1, the T/C [1] was 96 % of control, the T/C [2] was 89 % of control and the T/C (endpoint: mean survival time, dose: 400.0 mg/kg/injection, schedule: Q04DX002 (ip), vehicle: saline with Tween-80) was 104 % of control.

For CCOc1cccc(Cc2cn(Cc3ccccc3)c(=O)[nH]c2=O)c1, the T/C [3] was 100 % of control, the T/C [4] was 106 % of control and the T/C [5] was 96 % of control.

In the case of Cc1cc(Cl)ccc1NC(=O)CCl, the T/C [6] is reported as 93 % of control, the T/C [3] is reported as 100 % of control and the T/C [7] is reported as 88 % of control. The T/C [4] was 105 % of control, the T/C [8] was 96 % of control and the T/C [5] was 92 % of control.

In the case of O=[N+]([O-])c1ncn[nH]1, the T/C [6] is reported as 111 % of control, the T/C [7] is reported as 100 % of control and the T/C [8] is reported as 92 % of control.

In the case of CC(=O)Nc1ccc(S(=O)(=O)CBr)cc1, the T/C [9] is reported as 102 % of control, the T/C [10] is reported as 97 % of control and the T/C [11] is reported as 96 % of control.

CCc1ncnc2cc(OCC3CO3)c(OC)cc12 (configuration not stated) was tested, and the T/C (endpoint: median survival time, dose: 6.25 mg/kg/injection, schedule: Q01DX009 (ip), vehicle: saline with Tween-80) was 109 % of control, the T/C (endpoint: median survival time, dose: 6.25 mg/kg/injection, schedule: Q01DX009 (ip), vehicle: saline) was 112 % of control and the T/C (endpoint: median survival time, dose: 7.5 mg/kg/injection, schedule: Q01DX009 (ip), vehicle: suspension in saline) was 123 % of control. The T/C (endpoint: median survival time, dose: 10.0 mg/kg/injection, schedule: Q03DX003 (ip), vehicle: saline) was 154 % of control, the T/C (endpoint: median survival time, dose: 12.5 mg/kg/injection, schedule: Q01DX009 (ip), vehicle: saline with Tween-80) was 116 % of control and the T/C (endpoint: median survival time, dose: 12.5 mg/kg/injection, schedule: Q01DX009 (ip), vehicle: saline) was 121 % of control. The T/C (endpoint: median survival time, dose: 20.0 mg/kg/injection, schedule: Q01DX009 (ip), vehicle: other) was 156 % of control, the T/C (endpoint: median survival time, dose: 40.0 mg/kg/injection, schedule: Q01DX009 (ip), vehicle: other) was 166 % of control and the T/C (endpoint: median survival time, dose: 40.0 mg/kg/injection, schedule: Q04DX003 (ip), vehicle: other) was 112 % of control. For the same compound, the T/C (endpoint: median survival time, dose: 50.0 mg/kg/injection, schedule: Q01DX009 (ip), vehicle: DMSO) was 169 % of control, the T/C (endpoint: median survival time, dose: 50.0 mg/kg/injection, schedule: Q03DX003 (ip), vehicle: saline) was 152 % of control and 169 % of control and the T/C (endpoint: median survival time, dose: 80.0 mg/kg/injection, schedule: Q01DX001 (ip), vehicle: other) was 174 % of control. The T/C (endpoint: median survival time, dose: 80.0 mg/kg/injection, schedule: Q01DX001 (ip), vehicle: water) was 178 % of control, the T/C (endpoint: median survival time, dose: 80.0 mg/kg/injection, schedule: Q04DX003 (ip), vehicle: other) was 153 % of control and the T/C (endpoint: median survival time, dose: 120.0 mg/kg/injection, schedule: Q01DX001 (ip), vehicle: other) was 182 % of control. The T/C (endpoint: median survival time, dose: 120.0 mg/kg/injection, schedule: Q01DX001 (ip), vehicle: water) was 160 % of control and the T/C (endpoint: median survival time, dose: 120.0 mg/kg/injection, schedule: Q04DX003 (ip), vehicle: other) was 150 % of control.

O=c1[nH]c2c(c(=O)n1-c1ccccc1)CCCS2 was tested, and the T/C [9] was 103 % of control, the T/C [10] was 104 % of control and the T/C [11] was 103 % of control.

CCCCCCCCCCCCCCCC(=O)N(CCC#N)CCC#N was tested, and the T/C [3] was 93 % of control, the T/C [7] was 97 % of control and the T/C [4] was 96 % of control. The T/C [5] was 109 % of control.

For CC1OC(O[C@H]2/C=C/C=C/C=C/C=C/C=C/C=C/C=C/[C@H](C)[C@@H](O)[C@@H](C)[C@H](C)OC(=O)C[C@H](O)C[C@H](O)CC[C@@H](O)[C@H](O)C[C@H](O)C[C@]3(O)C[C@H](O)[C@@H](C(=O)O)[C@H](C2)O3)C(O)C(N)C1O (some centres not stated), the T/C (endpoint: median survival time, dose: 2.0 mg/kg/injection, schedule: Q01DX009 (ip), vehicle: suspension in saline) was 97 % of control, the T/C (endpoint: median survival time, dose: 4.0 mg/kg/injection, schedule: Q01DX009 (ip), vehicle: suspension in saline) was 102 % of control and the T/C (endpoint: median survival time, dose: 8.0 mg/kg/injection, schedule: Q01DX009 (ip), vehicle: suspension in saline) was 102 % of control. For the same compound, the T/C (endpoint: median survival time, dose: 16.0 mg/kg/injection, schedule: Q01DX009 (ip), vehicle: suspension in saline) was 97 % of control and 98 % of control, the T/C (endpoint: median survival time, dose: 18.75 mg/kg/injection, schedule: Q01DX009 (ip), vehicle: suspension in saline) was 108 % of control and the T/C (endpoint: median survival time, dose: 32.0 mg/kg/injection, schedule: Q01DX009 (ip), vehicle: suspension in saline) was 102 % of control and 105 % of control. The T/C (endpoint: median survival time, dose: 37.5 mg/kg/injection, schedule: Q01DX009 (ip), vehicle: suspension in saline) was 104 % of control, the T/C (endpoint: median survival time, dose: 64.0 mg/kg/injection, schedule: Q01DX009 (ip), vehicle: suspension in saline) was 101 % of control and the T/C (endpoint: median survival time, dose: 75.0 mg/kg/injection, schedule: Q01DX009 (ip), vehicle: suspension in saline) was 104 % of control. For the same compound, the T/C (endpoint: median survival time, dose: 128.0 mg/kg/injection, schedule: Q01DX009 (ip), vehicle: suspension in saline) was 105 % of control, the T/C (endpoint: median survival time, dose: 150.0 mg/kg/injection, schedule: Q01DX009 (ip), vehicle: suspension in saline) was 112 % of control and the T/C (endpoint: median survival time, dose: 300.0 mg/kg/injection, schedule: Q01DX009 (ip), vehicle: suspension in saline) was 106 % of control.

O=C(Nc1ccccc1[N+](=O)[O-])Oc1ccccc1 was tested, and the T/C (endpoint: mean survival time, dose: 75.0 mg/kg/injection, schedule: Q04DX002 (ip), vehicle: saline with Tween-80) was 96 % of control, the T/C (endpoint: mean survival time, dose: 150.0 mg/kg/injection, schedule: Q04DX002 (ip), vehicle: saline with Tween-80) was 96 % of control and the T/C (endpoint: mean survival time, dose: 300.0 mg/kg/injection, schedule: Q04DX002 (ip), vehicle: saline with Tween-80) was 96 % of control.

O=C1N(CCO)CCN1/N=C/c1ccc([N+](=O)[O-])o1 was tested, and the T/C [3] was 93 % of control, the T/C [4] was 102 % of control and the T/C [5] was 95 % of control.

CN(C)N=Nc1ccc(Cl)cc1C(N)=O was tested, and the T/C (endpoint: mean survival time, dose: 18.8 mg/kg/injection, schedule: Q01DX009 (ip), vehicle: Klucel (hydroxypropylcellulose) (HPC)) was 93 % of control and 98 % of control, the T/C (endpoint: mean survival time, dose: 37.5 mg/kg/injection, schedule: Q01DX009 (ip), vehicle: Klucel (hydroxypropylcellulose) (HPC)) was 91 % of control and 95 % of control and the T/C (endpoint: mean survival time, dose: 75.0 mg/kg/injection, schedule: Q01DX009 (ip), vehicle: Klucel (hydroxypropylcellulose) (HPC)) was 91 % of control and 104 % of control. The T/C (endpoint: mean survival time, dose: 150.0 mg/kg/injection, schedule: Q01DX009 (ip), vehicle: Klucel (hydroxypropylcellulose) (HPC)) was 114 % of control.

With Cc1nc(N)nc2c1CCC(=O)N2C the T/C (endpoint: mean survival time, dose: 50.0 mg/kg/injection, schedule: Q04DX002 (ip), vehicle: saline with Tween-80) was 97 % of control, the T/C (endpoint: mean survival time, dose: 100.0 mg/kg/injection, schedule: Q01DX001 (ip), vehicle: Klucel (hydroxypropylcellulose) (HPC)) was 102 % of control and the T/C [1] was 97 % of control. For the same compound, the T/C (endpoint: mean survival time, dose: 200.0 mg/kg/injection, schedule: Q01DX001 (ip), vehicle: Klucel (hydroxypropylcellulose) (HPC)) was 90 % of control and the T/C [2] was 97 % of control.
